Measured values: patent US7091183B1 (Boston Medical Center Corporation, priority 1996, dated 2006)
Several values for one entry are separate records, joined by “and”; a condition that tells them apart may be missing. Identical values can stand only once. Like-named read-outs stand apart in the source and are kept apart here. Where no end group is shown, it is not given here.

What was measured:
rat GIP receptor [1] = biological target: T1, rat GIP receptor (Rattus norvegicus, UniProt P43219); test: cAMP-dependent β-galactosidase production in LGIPR2 cells (agonist activity); assay type: cell-based; conditions: for β-gal level stimulated by peptide alone: FIG. 1B; for stimulation of cAMP-dependent β-galactosidase production (versus GIP (1–42) / above control levels): 10^−8 M peptide, 4 h
T1 construct: expressed in transfected cells; host or cells: L cells (LGIPR2), also carrying a VIP-promoter/lacZ cAMP reporter
T1 sequence (P43219 19-455): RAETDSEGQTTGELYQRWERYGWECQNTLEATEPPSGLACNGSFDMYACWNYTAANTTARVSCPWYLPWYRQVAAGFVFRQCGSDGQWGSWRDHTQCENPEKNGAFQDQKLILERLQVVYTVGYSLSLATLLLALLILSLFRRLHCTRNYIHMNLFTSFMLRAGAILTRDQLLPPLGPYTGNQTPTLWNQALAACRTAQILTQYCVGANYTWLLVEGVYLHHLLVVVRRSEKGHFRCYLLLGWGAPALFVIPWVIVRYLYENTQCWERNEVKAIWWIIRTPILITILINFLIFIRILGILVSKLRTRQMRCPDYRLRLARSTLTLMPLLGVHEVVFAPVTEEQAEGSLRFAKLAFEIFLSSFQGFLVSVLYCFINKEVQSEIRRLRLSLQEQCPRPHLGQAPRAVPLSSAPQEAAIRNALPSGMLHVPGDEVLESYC
From the text: LGIPR2 cells are stably transfected with a cAMP-dependent promoter from the VIP gene fused to the bacterial lac Z gene. When intracellular cAMP increases within these cells, lac Z gene transcription is activated, resulting in the accumulation of its product, β-galactosidase. The measurement of β-galactosidase in this system provided a convenient, inexpensive, and nonradioactive method for detecting changes in the levels of intracellular cAMP. […] The medium was then removed and wells rinsed once with phosphate-buffered saline (PBS). The plates were then blotted briefly and frozen overnight at −70° C., and, after the addition of chlorophenol red-β-D-galactopyranoside, accumulated β-galactosidase was detected using a calorimetric assay, as described previously (Usdin, et al., 1993, Endocrinology, 133:2861–2870). […] Natl. Acad. Sci. USA, 90:1992–1996).

fasted anesthetized rats = test: Intravenous infusion of peptides in fasting anesthetized rats, plasma insulin; assay type: in vivo, rat; conditions: for plasma insulin level after infusion: 30 min i.v. infusion
GIP receptor [2] = biological target: T2, GIP receptor (Mus musculus, UniProt Q0P543); conditions: βTC3 cells; cited from earlier work
T2 construct: host or cells: βTC3 cells (endogenous receptor)
T2 sequence (Q0P543 19-460): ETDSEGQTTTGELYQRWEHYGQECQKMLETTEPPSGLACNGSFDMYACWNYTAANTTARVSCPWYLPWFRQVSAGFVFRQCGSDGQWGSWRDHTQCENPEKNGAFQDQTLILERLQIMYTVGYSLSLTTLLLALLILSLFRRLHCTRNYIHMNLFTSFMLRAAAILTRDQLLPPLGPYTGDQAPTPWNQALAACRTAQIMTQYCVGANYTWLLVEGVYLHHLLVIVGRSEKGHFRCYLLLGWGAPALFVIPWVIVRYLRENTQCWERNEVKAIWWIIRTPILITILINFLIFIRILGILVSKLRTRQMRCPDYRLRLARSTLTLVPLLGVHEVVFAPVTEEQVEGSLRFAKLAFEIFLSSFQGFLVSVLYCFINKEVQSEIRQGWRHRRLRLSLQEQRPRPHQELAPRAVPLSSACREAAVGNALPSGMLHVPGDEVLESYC

rat GIP receptor [3] = biological target: T1, rat GIP receptor; test: Inhibition of GIP (1–42)-stimulated cAMP-dependent β-galactosidase production in LGIPR2 cells; assay type: cell-based; conditions: 10^−8 M GIP (1–42) plus fragment at 10^−8 M or 10^−6 M, 4 h
Method: LGIPR2 cells are stably transfected with a cAMP-dependent promoter from the VIP gene fused to the bacterial lac Z gene. When intracellular cAMP increases within these cells, lac Z gene transcription is activated, resulting in the accumulation of its product, β-galactosidase. The measurement of β-galactosidase in this system provided a convenient, inexpensive, and nonradioactive method for detecting changes in the levels of intracellular cAMP.
LGIPR2 cells were grown in Dulbecco's Modified Eagle's Medium (DMEM) containing 4.5 g/L of glucose and 10% fetal calf serum. For each assay, 10^5 cells/well were seeded onto 24-well plates. After incubation overnight, peptides were added in various concentrations to the wells in the absence of 3-isobutyl-methylxanthine (IBMX) for 4 h, at which time maximal stimulation of β-galactosidase was determined. The medium was then removed and wells rinsed once with phosphate-buffered saline (PBS). The plates were then blotted briefly and frozen overnight at −70° C., and, after the addition of chlorophenol red-β-D-galactopyranoside, accumulated β-galactosidase was detected using a calorimetric assay, as described previously (Usdin, et al., 1993, Endocrinology, 133:2861–2870).
Values are expressed as the mean±SE of quadruplicate measurements.

rats = conditions: exendin-treated rats, cited from earlier work
[4] = in vivo; cited from earlier work
GIP receptor [5] = conditions: cited from earlier work

CC[C@H](C)[C@H](NC(=O)[C@H](CO)NC(=O)[C@H](Cc1ccc(O)cc1)NC(=O)[C@H](CC(=O)O)NC(=O)[C@H](CO)NC(=O)[C@@H](NC(=O)[C@H](Cc1ccccc1)NC(=O)[C@@H](NC(=O)CNC(=O)[C@H](CCC(=O)O)NC(=O)[C@H](C)NC(=O)[C@@H](N)Cc1ccc(O)cc1)[C@@H](C)O)[C@@H](C)CC)C(=O)N[C@@H](C)C(=O)N[C@@H](CCSC)C(=O)N[C@@H](CC(=O)O)C(=O)N[C@@H](CCCCN)C(=O)N[C@H](C(=O)N[C@@H](CCCNC(=N)N)C(=O)N[C@@H](CCC(N)=O)C(=O)N[C@@H](CCC(N)=O)C(=O)N[C@@H](CC(=O)O)C(=O)N[C@@H](Cc1ccccc1)C(=O)N[C@H](C(=O)N[C@@H](CC(N)=O)C(=O)N[C@@H](Cc1c[nH]c2ccccc12)C(=O)N[C@@H](CC(C)C)C(=O)N[C@@H](CC(C)C)C(=O)N[C@@H](C)C(=O)N[C@@H](CCC(N)=O)C(=O)N[C@@H](CCCCN)C(=O)NCC(=O)N[C@@H](CCCCN)C(=O)N[C@@H](CCCCN)C(=O)N[C@@H](CC(N)=O)C(=O)N[C@@H](CC(=O)O)C(=O)N[C@@H](Cc1c[nH]c2ccccc12)C(=O)N[C@@H](CCCCN)C(=O)N[C@@H](Cc1c[nH]cn1)C(=O)N[C@@H](CC(N)=O)C(=O)N[C@@H](CC(C)C)C(=O)N[C@H](C(=O)N[C@@H](CCC(N)=O)C(=O)O)[C@@H](C)O)C(C)C)[C@@H](C)CC [GIP, glucose-dependent insulinotropic polypeptide]
β-gal level stimulated by peptide alone (rat GIP receptor [1]): 0.95±0.04 O.D. | concentration giving maximum effect on β-galactosidase production (rat GIP receptor [1]; at 4 h): 10^−8 M | plasma insulin level after infusion (fasted anesthetized rats; GIP 0.5 nmol/kg): 43.5±2.7 μIU/ml | plasma insulin level after infusion (fasted anesthetized rats; GIP 1.0 nmol/kg): 61.6±4.2 μIU/ml | plasma insulin level after infusion (fasted anesthetized rats; GIP 1.5 nmol/kg): 72.4±3.5 μIU/ml

CC[C@H](C)[C@H](NC(=O)[C@H](Cc1ccccc1)NC(=O)[C@H](CCC(=O)O)NC(=O)[C@H](CCCCN)NC(=O)[C@H](C)NC(=O)[C@H](C)NC(=O)[C@H](CCC(N)=O)NC(=O)CNC(=O)[C@H](CCC(=O)O)NC(=O)[C@H](CC(C)C)NC(=O)[C@H](Cc1ccc(O)cc1)NC(=O)[C@H](CO)NC(=O)[C@H](CO)NC(=O)[C@@H](NC(=O)[C@H](CC(=O)O)NC(=O)[C@H](CO)NC(=O)[C@@H](NC(=O)[C@H](Cc1ccccc1)NC(=O)[C@@H](NC(=O)CNC(=O)[C@H](CCC(=O)O)NC(=O)[C@H](C)NC(=O)[C@@H](N)Cc1c[nH]cn1)[C@@H](C)O)[C@@H](C)O)C(C)C)C(=O)N[C@@H](C)C(=O)N[C@@H](Cc1c[nH]c2ccccc12)C(=O)N[C@@H](CC(C)C)C(=O)N[C@H](C(=O)N[C@@H](CCCCN)C(=O)NCC(=O)N[C@@H](CCCNC(=N)N)C(N)=O)C(C)C [GLP-1, glucagon like peptide-1 (7–36)]
plasma insulin level at 30 min (fasted anesthetized rats; GLP-1 0.4 nmol/kg infusion): 50.3±3.7 μIU/ml

N=C(N)NCCC[C@H](N)C(=O)O [arginine]
plasma insulin level at 30 min (fasted anesthetized rats; arginine 375 mg/kg infusion): 69.7±5.8 μIU/ml

GIP (1–30)-NH2 (YAEGTFISDYSIAMDKIRQQDFVNWLLAQK-NH2; listed as Rattus norvegicus)
stimulation of cAMP-dependent β-galactosidase production (versus GIP (1–42) / above control levels) (rat GIP receptor [1]): nearly equipotent | binding of GIP (1–42) to the GIP receptor (GIP receptor [2]): competitively inhibited binding

GIP (10–30)-NH2 (YSIAMDKIRQQDFVNWLLAQK-NH2; listed as Rattus norvegicus)
stimulation of cAMP-dependent β-galactosidase production (versus GIP (1–42) / above control levels) (rat GIP receptor [1]): partial agonist activity | β-gal level stimulated by peptide alone (rat GIP receptor [1]): 0.39 O.D. | antagonism of the cAMP stimulatory effect of GIP (1–42) (rat GIP receptor [3]): an antagonist, albeit a weak one

GIP (16–30)-NH2 (KIRQQDFVNWLLAQK-NH2; listed as Rattus norvegicus)
stimulation of cAMP-dependent β-galactosidase production (versus GIP (1–42) / above control levels) (rat GIP receptor [1]): did not mimic GIP and none | antagonism of the cAMP stimulatory effect of GIP (1–42) (rat GIP receptor [3]): neither did they inhibit GIP-dependent effects

GIP (21–30)-NH2 (DFVNWLLAQK-NH2)
stimulation of cAMP-dependent β-galactosidase production (versus GIP (1–42) / above control levels) (rat GIP receptor [1]): none

GIP (31–44) (GKKNDWKHNLTQRE; listed as Rattus norvegicus)
stimulation of cAMP-dependent β-galactosidase production (versus GIP (1–42) / above control levels) (rat GIP receptor [1]): none

exendin (9–39)
plasma glucose level (rats; increased from 7.5): 8.7 mmol/L | reduction of postprandial insulin release (rats): 50% and 48% | reduction of postprandial insulin release (rats; listed as exendin): ~50% | reduction of insulin release following intraduodenal glucose infusion [4]: 70% | GIP binding to its receptor (GIP receptor [5]): displaced GIP binding from its receptor | cAMP generation in response to GIP stimulation (GIP receptor [5]): inhibits cAMP generation
